45 molecules from US9079905B2, “Compounds for the treatment of CNS disorders” (Boehringer Ingelheim International GmbH, priority 2008, dated 2015) can be followed below.

Molecules are shown by their SMILES.

The term inhibition denotes the drop in the measured response relative to a control, in per cent. In general, IC50 refers to the concentration that inhibits the measured activity by half. Higher therefore signals lower potency.

The target in the assay is T1, human PDE9A2 (Homo sapiens, UniProt O76083).
T1 construct: made in house; host or cells: Sf9 insect cells (infected; crude lysate used as enzyme source)
T1 sequence (O76083 1-533 isoform O76083-2): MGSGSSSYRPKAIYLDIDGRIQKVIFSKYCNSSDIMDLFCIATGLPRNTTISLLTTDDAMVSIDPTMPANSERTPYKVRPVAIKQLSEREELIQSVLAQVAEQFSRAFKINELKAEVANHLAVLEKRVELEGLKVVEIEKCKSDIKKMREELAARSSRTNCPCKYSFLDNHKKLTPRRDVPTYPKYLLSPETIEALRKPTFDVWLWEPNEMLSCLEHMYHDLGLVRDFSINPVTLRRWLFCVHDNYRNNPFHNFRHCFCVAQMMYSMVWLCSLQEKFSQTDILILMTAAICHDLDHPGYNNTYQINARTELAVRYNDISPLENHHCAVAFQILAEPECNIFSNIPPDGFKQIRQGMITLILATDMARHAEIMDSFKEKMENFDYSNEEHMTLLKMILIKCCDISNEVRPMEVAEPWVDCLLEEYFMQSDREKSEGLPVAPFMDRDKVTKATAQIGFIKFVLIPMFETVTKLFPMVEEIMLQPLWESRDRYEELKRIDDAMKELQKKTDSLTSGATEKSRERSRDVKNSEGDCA
Description: PDE9A2 enzymatic activity assay (scintillation proximity assay). The class given is biochemical. Conditions: for IC50: specific IC50 value is within the given range; for inhibition at 10 µM / % Inhibition of PDE 9A2: at 10 μM. The method, then:
The PDE9A2 enzymatic activity assay was run as scintillation proximity assay (SPA), in general according to the protocol of the manufacturer (Amersham Biosciences, product number: TRKQ 7100).
As enzyme source, lysate (PBS with 1% Triton X-100 supplemented with protease inhibitors, cell debris removed by centrifugation at 13.000 rpm for 30 min) of SF 9 cell expressing the human PDE9A2 was used. The total protein amount included in the assay varied upon infection and production efficacy of the SF9 cells and lay in the range of 0.1-100 ng.
In general, the assay conditions were as follows: • total assay volume: 40 microliter • protein amount: 0.1-50 ng • substrate concentration (cGMP): 20 nanomolar; ˜1 mCi/1 • incubation time: 60 min at room temperature • final DMSO concentration: 0.2-1
The assays were run in 384-well format. The test reagents as well as the enzyme and the substrate were diluted in assay buffer. The assay buffer contained 50 mM Tris, 8.3 mM MgCl2, 1.7 mM EGTA, 0.1% BSA, 0.05% Tween 20; the pH of assay buffer was adjusted to 7.5. The reaction was stopped by applying a PDE9 specific inhibitor (e.g. compounds according to WO04099210 or WO04099211) in excess.
The activity of the positive control (minus the negative control=background) is set to 100% and activity in the presence of test compound is expressed relative to these 100%. Within this setting, an inhibition above 100% might be possible due to the nature of the variation of the positive control within the assay. In the following inhibition of PDE 9A2 is presented for a concentration at 10 μM, if not indicated otherwise.
IC50 can be calculated with GraphPadPrism or other suited software setting the positive control as 100 and the negative control as 0. For calculation of IC50 dilutions of the test compounds (substrates) are to be selected and tested following the aforementioned protocol.

Where [1] appears, read: read-out: % Inhibition of PDE 9A2.

The molecule `O=c1[nH]c(CC2CCCC2)nc2c1cnn2C1CCCC1O` (mixture of isomers) [Example 10] had an IC50 of 1 to 100 nM. The inhibition at 10 µM under setting [1] came out at 102%.
The like results for `O=c1[nH]c(Cc2ccccn2)nc2c1cnn2C1CCCC(c2ccccc2)C1` (mixture of isomers) [Example 14] were, in that order, 101 to 1500 nM and 94%.
The molecule `O=c1[nH]c(CC2CC2)nc2c1cnn2C1CCCC(c2ccccc2)C1` (mixture of isomers) [Example 15] gave an IC50 of 101 to 1500 nM. For the same molecule, the inhibition at 10 µM under setting [1] was determined as 93%.
`CC(C)(C)OC(=O)NC1CCCC(n2ncc3c(=O)[nH]c(CC4CCCC4)nc32)C1` (mixture of isomers) [Example 16] yielded an IC50 of 1 to 100 nM. Moreover, the inhibition at 10 µM under setting [1] turned out to be 104%.
In turn, `CCOC(=O)NC1CCCC(n2ncc3c(=O)[nH]c(CC4CCCC4)nc32)C1` (mixture of isomers) [Example 17] displayed an IC50 of 1 to 100 nM. The inhibition at 10 µM under setting [1] is 103%.
In turn, `CC(C)(C)OC(=O)NC1CCCC(n2ncc3c(=O)[nH]c(Cc4ccccc4OC(F)(F)F)nc32)C1` (mixture of isomers) [Example 18] registered an IC50 of 1 to 100 nM. For the same molecule, under setting [1], the inhibition at 10 µM worked out at 100%.
The like results for `CCOC(=O)NC1CCCC(n2ncc3c(=O)[nH]c(Cc4ccccc4OC(F)(F)F)nc32)C1` (mixture of isomers) [Example 19] were, in that order, 1 to 100 nM and 100%.
`CC(=O)NC1CCCC(n2ncc3c(=O)[nH]c(Cc4ccccc4OC(F)(F)F)nc32)C1` (mixture of isomers) [Example 49] returned an IC50 of 1 to 100 nM. For the same molecule, the inhibition at 10 µM under setting [1] was determined as 99%.
The molecule `O=C(NC1CCCC(n2ncc3c(=O)[nH]c(Cc4ccccc4OC(F)(F)F)nc32)C1)c1ccccc1` (mixture of isomers) [Example 85] gave an IC50 of 101 to 1500 nM. Moreover, under setting [1], the inhibition at 10 µM was determined as 94%.
For `COC1CCCCC1n1ncc2c(=O)[nH]c(CC3CC3)nc21` (racemic) [Example 11], the IC50 lay in the range of 101 to 1500 nM. For the same molecule, the inhibition at 10 µM under setting [1] was 89%.
`COC1CCCCC1n1ncc2c(=O)[nH]c(Cc3ccccn3)nc21` (racemic) [Example 12] had an IC50 of 101 to 1500 nM. Further, the inhibition at 10 µM under setting [1] was 83%.
The like results for `CCCC1OCCCC1Cc1nc2c(cnn2C2CCC(F)(F)CC2)c(=O)[nH]1` (racemic) [Example 24] were, in that order, 101 to 1500 nM and 98%.
The molecule `O=c1[nH]c(C(F)c2ccccc2)nc2c1cnn2C1CCC(F)(F)CC1` (racemic) [Example 25] registered an IC50 of 1 to 100 nM. For the same molecule, under setting [1], the inhibition at 10 µM is 103%.
Taken in the same sequence, the figures for `CCC(Cc1nc2c(cnn2C2CCC(F)(F)CC2)c(=O)[nH]1)C(F)(F)F` (racemic) [Example 27] were 1 to 100 nM and 104%.
On to `CC1(C)CC(Cc2nc3c(cnn3C3CCC(F)(F)CC3)c(=O)[nH]2)C(=O)O1` (racemic) [Example 28], for which the IC50 lay in the range of 101 to 1500 nM. Moreover, the inhibition at 10 µM under setting [1] came to 91%.
The like results for `CC(Cc1nc2c(cnn2C2CCC(F)(F)CC2)c(=O)[nH]1)C(F)(F)F` (racemic) [Example 30] were, in that order, 1 to 100 nM and 98%.
For `O=c1[nH]c(C(F)c2ccccc2Br)nc2c1cnn2C1CCC(F)(F)CC1` (racemic) [Example 48-2], the 50% inhibitory concentration (IC50) was 101 to 1500 nM. For the same molecule, the inhibition at 10 µM under setting [1] was 92%.
Take `CC(Cc1nc2c(cnn2C2CCC(F)(F)CC2)c(=O)[nH]1)C(F)F` (racemic) [Example 48-5]: the half-maximal inhibitory concentration (IC50) was in the range of 101 to 1500 nM. In addition, under setting [1], the inhibition at 10 µM is 93%.
In turn, `C[C@@H]1CC(Cc2nc3c(cnn3C3CCC(F)(F)CC3)c(=O)[nH]2)C(=O)N1C` (mixture of isomers) [Example 48-6] registered an IC50 of 101 to 1500 nM. Besides, the inhibition at 10 µM under setting [1] worked out at 87%.
`CC(=O)NC1CCCC(n2ncc3c(=O)[nH]c(CC4CCCC4)nc32)C1` (racemic) [Example 50] yielded an IC50 of 101 to 1500 nM. Further, the inhibition at 10 µM under setting [1] was 95%.
Regarding `O=C(NC1CCCC(n2ncc3c(=O)[nH]c(CC4CCCC4)nc32)C1)c1ccccc1` (racemic) [Example 51], the IC50 lay in the range of 101 to 1500 nM. The inhibition at 10 µM under setting [1] was found to be 98%.
Taken in the same sequence, the figures for `CC1(C)CC(Cc2nc3c(cnn3C3CCC(F)(F)CC3)c(=O)[nH]2)CO1` (racemic) [Example 52] were 1 to 100 nM and 98%.
With `O=c1[nH]c(C(F)c2ccccc2-c2ccncc2)nc2c1cnn2C1CCC(F)(F)CC1` (racemic) [Example 72-10], the IC50 is 101 to 1500 nM. In addition, the inhibition at 3.3 µM (at 3.3 μM, read-out: % Inhibition of PDE 9A2) amounted to 52%.
Take `Cn1cc(-c2ccccc2C(F)c2nc3c(cnn3C3CCC(F)(F)CC3)c(=O)[nH]2)cn1` (racemic) [Example 72-11]: the concentration for half-maximal inhibition (IC50) lay in the range of 1 to 100 nM. Further, the inhibition at 10 µM under setting [1] turned out to be 84%.
On to `NC1CCCC(n2ncc3c(=O)[nH]c(CC4CCCC4)nc32)C1` (racemic) [Example 86], for which the IC50 fell in the range of 101 to 1500 nM. Further, under setting [1], the inhibition at 10 µM worked out at 77%.
`NC1CCCC(n2ncc3c(=O)[nH]c(Cc4ccccc4OC(F)(F)F)nc32)C1` (racemic) [Example 87] showed an IC50 of 101 to 1500 nM. Also, the inhibition at 10 µM under setting [1] amounted to 81%.
Taken in the same sequence, the figures for `O=c1[nH]c(C(F)c2ccccc2-n2cccn2)nc2c1cnn2C1CCC(F)(F)CC1` (racemic) [Example 88] were 101 to 1500 nM and 93%.
For `CC(Cc1nc2c(cnn2C2CCC(F)(F)CC2)c(=O)[nH]1)C(F)(F)F` (single isomer, unassigned) [Example 47], the IC50 lay in the range of 1 to 100 nM. Also, the inhibition at 10 µM under setting [1] came to 98%.
Regarding `CC(Cc1nc2c(cnn2C2CCC(F)(F)CC2)c(=O)[nH]1)C(F)(F)F` (single isomer, unassigned) [Example 48], the “% Inhibition of PDE 9A2” value was found to be 96% and the IC50 was 101 to 1500 nM.
The molecule `CC1(C)CC(Cc2nc3c(cnn3C3CCC(F)(F)CC3)c(=O)[nH]2)CO1` (single isomer, unassigned) [Example 77] displayed an IC50 of 1 to 100 nM. Under setting [1], the inhibition at 10 µM worked out at 100%.
Taken in the same sequence, the figures for `O=c1[nH]c(C(F)c2ccccc2-n2cccn2)nc2c1cnn2C1CCC(F)(F)CC1` (single isomer, unassigned) [Example 92] were 101 to 1500 nM and 93%.
In the case of `CCC(Cc1nc2c(cnn2C2CCC(F)(F)CC2)c(=O)[nH]1)C(F)(F)F` (single isomer, unassigned) [Example 101], the IC50 fell in the range of 1 to 100 nM. Further, under setting [1], the inhibition at 10 µM was 100%.
For `CCC(Cc1nc2c(cnn2C2CCC(F)(F)CC2)c(=O)[nH]1)C(F)(F)F` (single isomer, unassigned) [Example 102], the “% Inhibition of PDE 9A2” value is listed as 96% and the IC50 was in the range of 101 to 1500 nM.
Regarding `O=c1[nH]c(Cc2ccccn2)nc2c1cnn2C1CCC(F)(F)CC1` [Example 1], the IC50 fell in the range of 1 to 100 nM. The inhibition at 10 µM under setting [1] was 98%.
Molecule `O=c1[nH]c(CC2CC2)nc2c1cnn2C1CCC(F)(F)CC1` [Example 2] registered an IC50 of 1 to 100 nM. The inhibition at 10 µM under setting [1] came out at 101%.
Taken in the same sequence, the figures for `O=c1[nH]c(Cc2ccccc2OC(F)(F)F)nc2c1cnn2C1CCC(F)(F)CC1` [Example 3] were 1 to 100 nM and 94%.
The like results for `O=c1[nH]c(Cc2ccccc2)nc2c1cnn2C1CCC(F)(F)CC1` [Example 4] were, in that order, 1 to 100 nM and 100%.
The like results for `O=c1[nH]c(Cc2cccc(Cl)c2)nc2c1cnn2C1CCC(F)(F)CC1` [Example 5] were, in that order, 1 to 100 nM and 98%.
In turn, `O=c1[nH]c(Cc2cccc(C(F)(F)F)c2)nc2c1cnn2C1CCC(F)(F)CC1` [Example 6] registered an IC50 of 1 to 100 nM. For the same molecule, the inhibition at 10 µM under setting [1] turned out to be 98%.
Taken in the same sequence, the figures for `O=c1[nH]c(Cc2cc(F)cc(F)c2)nc2c1cnn2C1CCC(F)(F)CC1` [Example 7] were 1 to 100 nM and 96%.
`CCCCc1nc2c(cnn2C2CCC(F)(F)CC2)c(=O)[nH]1` [Example 8] came in with an IC50 of 1 to 100 nM. Besides, the inhibition at 10 µM under setting [1] stood at 98%.
On to `CC(C)Cc1nc2c(cnn2C2CCC(F)(F)CC2)c(=O)[nH]1` [Example 9], for which the IC50 fell in the range of 1 to 100 nM. The inhibition at 10 µM under setting [1] was 97%.
`CC1(C)CC(n2ncc3c(=O)[nH]c(CC4CC4)nc32)CC(C)(C)C1` [Example 13] showed an IC50 of 101 to 1500 nM. The inhibition at 10 µM under setting [1] is 98%.
Take `O=c1[nH]c(CC2CCCC2)nc2c1cnn2C1CCC(F)(F)CC1` [Example 20]: the IC50 is 1 to 100 nM. Also, under setting [1], the inhibition at 10 µM came to 104%.
Regarding `CCC(CC)Cc1nc2c(cnn2C2CCC(F)(F)CC2)c(=O)[nH]1` [Example 21], the IC50 was 1 to 100 nM. Besides, under setting [1], the inhibition at 10 µM is 103%.
